Assay results reported in PMC7509492, “To What Extent Do Fluorophores Bias the Biological Activity of Peptides? A Practical Approach Using Membrane-Active Peptides as Models” (Frontiers in Bioengineering and Biotechnology, 2020).
Ends that are not written are not given here. Peptide text beside a SMILES is read from it. * marks the point of attachment. RhodamineB = CCN(CC)c1ccc2c(-c3ccccc3C(=O)*)c3ccc(=[N+](CC)CC)cc-3oc2c1; X1 = CC[N+]1=C(C=CC=C2N(CCCCCC(=O)*)c3ccccc3C2(C)C)C(C)(C)c2ccccc21; 5FAM = O=C1OC2(c3ccc(O)cc3Oc3cc(O)ccc32)c2ccc(C(=O)*)cc21

Tests used:
[1] = test system: MDA-MB-231 cells; test: CellTiter-Blue cell viability assay, MDA-MB-231; assay type: cell-based, human; conditions: peptide 0.01-100 μM, mean ± SD, triplicates of three independent experiments; for Cytotoxicity MDA-MB-231 cells IC10: Table 1, concentration causing 10% cell death; for Cytotoxicity MDA-MB-231 cells IC10 / IC90: 24 h; for IC50: Table 1, 24 h, read-out: Cytotoxicity MDA-MB-231 cells IC50; for IC90: Table 1, concentration causing 90% cell death, read-out: Cytotoxicity MDA-MB-231 cells IC90
Procedure: (§1) Peptides cytotoxicity against both HBEC-5i and MDA-MB-231 cells was determined using CellTiter-Blue® Cell Viability Assay, according to the manufacturer’s instructions. The assay is based on the ability of viable cells to reduce resazurin into resorufin, a highly fluorescent metabolite. […] Therefore, using this methodology is possible to distinguish between metabolic and non-metabolic cells and indirectly determine the cytotoxicity of peptides. Briefly, HBEC-5i and MDA-MB-231 cells were carefully detached from T-flasks, as described previously, and seeded 15,000/100 and 10,000/100 μL, respectively, in 96-well plates (Corning, United States) and incubated for 24 h. After medium removal, cells were washed two times with 1× PBS and 100 μL of previously diluted peptides (range between 0.01 and 100 μM) in either DMEM or DMEM:F12 medium were added to MDA-MB-231 or HBEC-5i cells, respectively. After 24 h incubation, cells were washed two times with 1× PBS, and 20 μL of CellTiter-Blue® Reagent (diluted in 100 μL of medium) was added to each well and incubated for 3 h in a humidified atmosphere of 5% CO2 at 37°C. The fluorescence intensity was measured at λ with an excitation of 560 nm and maximum emission at 590 nm using the infinite F200 TECAN plate reader. Medium and 1% Triton X-100-containing medium were used as positive controls (100% cell viability) and negative controls (0% cell viability), respectively. Cell viability (%) was determined using the following equation:
(§2) (7) CellViability=FP-FNC/FPC-FNC×100
(§3) Fp is the fluorescence intensity of peptide-treated cells, FNC is the fluorescence intensity for negative controls, and FPC is the fluorescence intensity for positive controls.
(§4) Experiments were performed on different days using independently grown cell cultures.
(§5) FIGURE 4 In vitro cytotoxicity unlabeled- and labeled-peptides. (A,B) Cytotoxicity against HBEC-5i cells. (C,D) Cytotoxicity against MDA-MB-231 cells. 1.5 × 10^4 and 1.0 × 10^4 cells of HBEC-5i and MDA-MB-231 cells, respectively, were incubated with various concentrations of peptides (range from 0.01 to 100 μM). The percentage of viability was determined using CellTiter® Blue reagent assay. […] Error bars, S.D.

[2] = CellTiter-Blue cell viability assay, MDA-MB-231; assay type: cell-based, human; conditions: human, MDA-MB-231 cells, mean ± SD, triplicates of three independent experiments; for IC90 at 24 h: Table 1, concentration causing 90% cell death, peptide 0.01-100 μM, read-out: Cytotoxicity MDA-MB-231 cells IC90; for IC50 at 24 h: Table 1, peptide 0.01-100 μM, read-out: Cytotoxicity MDA-MB-231 cells IC50
Procedure: as §1, §2, §3, §4, §5

[3] = test system: human RBCs; test: Hemolytic activity on human red blood cells; conditions: Table 1, human RBCs in 1x PBS pH 7.4, 24 h, 37°C, peptide 0.01-100 μM, mean ± SD, triplicates of three independent experiments; for Hemolytic activity HC10: concentration causing 10% hemolysis, hemoglobin absorbance 570 nm; for Hemolytic activity HC50: concentration causing 50% hemolysis; for Hemolytic activity HC50 / Hemolytic activity HC90: absorbance 570 nm; for Hemolytic activity HC90: concentration causing 90% hemolysis
Procedure: Fresh human blood was collected in EDTA tubes and centrifuged at 1,000 × g for 10 min at 4°C. The supernatant was discharged, and the pellet containing RBCs was washed three times with 1× PBS (137 mM NaCl, 2.7 mM KCl, 10 mM Na2HPO4, and 1.8 mM KH2PO4, pH 7.4) and resuspended in 1× PBS to obtain a 2.0% (v/v) suspension. Then, RBCs were added to centrifuge tubes containing two-fold serially diluted peptides to a final concentration ranging from 0.01 to 100 μM. The suspension was incubated for 24 h at 37°C with gentle stirring. After that, samples were centrifuged for 2 min at 1,000 × g. Supernatants were transferred to 96-well plates, and the hemoglobin released measured by absorbance at 570 nm in an Infinite F200 TECAN plate reader. 1× PBS with no peptides and Triton X-100 at 1 and 4% (v/v) were used as negative and positive controls, respectively. Hemolytic activity (%) was determined using the following equation:
(2) Hemolyticactivity(%)=AbsPT-AbsNC/AbsPC-AbsNC
where, AbsPT is the absorbance of treated samples, AbsNC is the absorbance from negative control, and AbsPC absorbance from positive control.
HC50 values were determined using the GraphPad Prism 7.0 software using a log(inhibitor) vs. normalized response. Experiments were performed on different days using independent blood donors.
(range from 0.01 to 100 μM). The percentage of hemolysis was determined by the absorbance of hemoglobin released into the supernatant. Melittin was included as a control peptide with hemolytic properties. The values were obtained from triplicates of three independent experiments. Error bars, S.D.

| Molecule | Cytotoxicity MDA-MB-231 cells IC10 [1] | IC90 at 24 h [2] | IC50 at 24 h [2] | Hemolytic activity HC10 [3] | Hemolytic activity HC50 [3] | Hemolytic activity HC90 [3] | IC50 [1] | IC90 [1] |
| --- | --- | --- | --- | --- | --- | --- | --- | --- |
| CC[C@H](C)[C@H](NC(=O)[C@H](CCCCN)NC(=O)[C@H](CCCCN)NC(=O)[C@H](CC(C)C)NC(=O)[C@H](CCCNC(=N)N)NC(=O)[C@H](CCCCN)NC(=O)[C@H](CCCCN)NC(=O)c1ccc2c(c1)C(=O)OC21c2ccc(O)cc2Oc2cc(O)ccc21)C(=O)N[C@@H](Cc1ccccc1)C(=O)N[C@@H](CCCCN)C(=O)N[C@@H](CCCCN)C(=O)N1CCC[C@H]1C(=O)N[C@@H](CCSC)C(=O)N[C@H](C(=O)N[C@H](C(=O)NCC(=O)N[C@H](C(=O)N[C@H](C(=O)N[C@H](C(=O)N1CCC[C@H]1C(=O)N[C@@H](Cc1ccccc1)C(N)=O)[C@@H](C)CC)[C@@H](C)O)C(C)C)[C@@H](C)CC)C(C)C [CF-Ctn[15-34]] (5FAM-KKRLKKIFKKPMVIGVTIPF-NH2) | 4.23 ± 1.02 µM | > 200 µM | > 200 µM | >200 µM | >200 µM | >200 µM |  |  |
| N=C(N)NCCC[C@H](NC(=O)[C@H](CCCNC(=N)N)NC(=O)[C@@H]1CCCN1C(=O)[C@H](CCCNC(=N)N)NC(=O)[C@H](CCCNC(=N)N)NC(=O)[C@H](CCCNC(=N)N)NC(=O)[C@H](Cc1c[nH]c2ccccc12)NC(=O)[C@H](CCCNC(=N)N)NC(=O)[C@H](CCCNC(=N)N)NC(=O)[C@H](CCCNC(=N)N)NC(=O)[C@H](CCCNC(=N)N)NC(=O)[C@H](CCCNC(=N)N)NC(=O)[C@H](Cc1c[nH]c2ccccc12)NC(=O)[C@H](CCCNC(=N)N)NC(=O)[C@H](CCCNC(=N)N)NC(=O)[C@H](Cc1ccc(O)cc1)NC(=O)[C@H](CCCNC(=N)N)NC(=O)[C@H](CCCNC(=N)N)NC(=O)[C@H](CCCNC(=N)N)NC(=O)[C@H](Cc1c[nH]c2ccccc12)NC(=O)c1ccc2c(c1)C(=O)OC21c2ccc(O)cc2Oc2cc(O)ccc21)C(N)=O [CF-vCPP2319] (5FAM-WRRRYRRWRRRRRWRRRPRR-NH2) | 1.26 ± 0.24 µM | 18.8 ± 1.87 µM | 4.72 ± 0.94 µM | >200 µM | >200 µM | >200 µM |  |  |
| CC[C@H](C)[C@H](NC(=O)[C@H](CCCCN)NC(=O)[C@H](CCCCN)NC(=O)[C@H](CC(C)C)NC(=O)[C@H](CCCNC(=N)N)NC(=O)[C@H](CCCCN)NC(=O)[C@H](CCCCN)NC(=O)CCCCCN1C(=CC=CC2=[N+](CC)c3ccccc3C2(C)C)C(C)(C)c2ccccc21)C(=O)N[C@@H](Cc1ccccc1)C(=O)N[C@@H](CCCCN)C(=O)N[C@@H](CCCCN)C(=O)N1CCC[C@H]1C(=O)N[C@@H](CCSC)C(=O)N[C@H](C(=O)N[C@H](C(=O)NCC(=O)N[C@H](C(=O)N[C@H](C(=O)N[C@H](C(=O)N1CCC[C@H]1C(=O)N[C@@H](Cc1ccccc1)C(N)=O)[C@@H](C)CC)[C@@H](C)O)C(C)C)[C@@H](C)CC)C(C)C [Q570-Ctn[15-34]] (X1-KKRLKKIFKKPMVIGVTIPF-NH2) | 3.08 ± 1.22 µM | > 200 µM | 144 ± 4.21 µM |  |  |  |  |  |
| CC[N+]1=C(C=CC=C2N(CCCCCC(=O)N[C@@H](Cc3c[nH]c4ccccc34)C(=O)N[C@@H](CCCNC(=N)N)C(=O)N[C@@H](CCCNC(=N)N)C(=O)N[C@@H](CCCNC(=N)N)C(=O)N[C@@H](Cc3ccc(O)cc3)C(=O)N[C@@H](CCCNC(=N)N)C(=O)N[C@@H](CCCNC(=N)N)C(=O)N[C@@H](Cc3c[nH]c4ccccc34)C(=O)N[C@@H](CCCNC(=N)N)C(=O)N[C@@H](CCCNC(=N)N)C(=O)N[C@@H](CCCNC(=N)N)C(=O)N[C@@H](CCCNC(=N)N)C(=O)N[C@@H](CCCNC(=N)N)C(=O)N[C@@H](Cc3c[nH]c4ccccc34)C(=O)N[C@@H](CCCNC(=N)N)C(=O)N[C@@H](CCCNC(=N)N)C(=O)N[C@@H](CCCNC(=N)N)C(=O)N3CCC[C@H]3C(=O)N[C@@H](CCCNC(=N)N)C(=O)N[C@@H](CCCNC(=N)N)C(N)=O)c3ccccc3C2(C)C)C(C)(C)c2ccccc21 [Q570-vCPP2319] (X1-WRRRYRRWRRRRRWRRRPRR-NH2) | 1.14 ± 0.34 µM | 16 ± 1.94 µM | 4.26 ± 1.03 µM |  |  |  |  |  |
| CC[C@H](C)[C@H](NC(=O)[C@H](CCCCN)NC(=O)[C@H](CCCCN)NC(=O)[C@H](CC(C)C)NC(=O)[C@H](CCCNC(=N)N)NC(=O)[C@H](CCCCN)NC(=O)[C@H](CCCCN)NC(=O)c1ccccc1-c1c2ccc(=[N+](CC)CC)cc-2oc2cc(N(CC)CC)ccc12)C(=O)N[C@@H](Cc1ccccc1)C(=O)N[C@@H](CCCCN)C(=O)N[C@@H](CCCCN)C(=O)N1CCC[C@H]1C(=O)N[C@@H](CCSC)C(=O)N[C@H](C(=O)N[C@H](C(=O)NCC(=O)N[C@H](C(=O)N[C@H](C(=O)N[C@H](C(=O)N1CCC[C@H]1C(=O)N[C@@H](Cc1ccccc1)C(N)=O)[C@@H](C)CC)[C@@H](C)O)C(C)C)[C@@H](C)CC)C(C)C [RhB-Ctn[15-34]] (RhodamineB-KKRLKKIFKKPMVIGVTIPF-NH2) | 2.97 ± 0.98 µM | > 200 µM | > 200 µM | 3.29 ± 1.32 µM | 61.43 ± 4.33 µM | >200 µM |  |  |
| CCN(CC)c1ccc2c(-c3ccccc3C(=O)N[C@@H](Cc3c[nH]c4ccccc34)C(=O)N[C@@H](CCCNC(=N)N)C(=O)N[C@@H](CCCNC(=N)N)C(=O)N[C@@H](CCCNC(=N)N)C(=O)N[C@@H](Cc3ccc(O)cc3)C(=O)N[C@@H](CCCNC(=N)N)C(=O)N[C@@H](CCCNC(=N)N)C(=O)N[C@@H](Cc3c[nH]c4ccccc34)C(=O)N[C@@H](CCCNC(=N)N)C(=O)N[C@@H](CCCNC(=N)N)C(=O)N[C@@H](CCCNC(=N)N)C(=O)N[C@@H](CCCNC(=N)N)C(=O)N[C@@H](CCCNC(=N)N)C(=O)N[C@@H](Cc3c[nH]c4ccccc34)C(=O)N[C@@H](CCCNC(=N)N)C(=O)N[C@@H](CCCNC(=N)N)C(=O)N[C@@H](CCCNC(=N)N)C(=O)N3CCC[C@H]3C(=O)N[C@@H](CCCNC(=N)N)C(=O)N[C@@H](CCCNC(=N)N)C(N)=O)c3ccc(=[N+](CC)CC)cc-3oc2c1 [RhB-vCPP2319] (RhodamineB-WRRRYRRWRRRRRWRRRPRR-NH2) | 1.13 ± 0.64 µM | 16.6 ± 1.31 µM | 4.11 ± 1.04 µM | 2.43 ± 0.32 µM | 23.88 ± 2.24 µM | >200 µM |  |  |
| KKRLKKIFKKPMVIGVTIPF-NH2 [Ctn[15-34]] | 4.76 ± 1.56 µM | > 200 µM | > 200 µM | >200 µM | >200 µM | >200 µM |  |  |
| TF3-KKRLKKIFKKPMVIGVTIPF-amide [TF3-Ctn[15-34]] | 2.57 ± 1.37 µM |  |  | 102.0 ± 6.20 µM | >200 µM | >200 µM | 123 ± 3.84 µM | > 200 µM |
| TF3-WRRRYRRWRRRRRWRRRPRR-amide [TF3-vCPP2319] | 1.05 ± 0.21 µM |  |  | 2.83 ± 0.97 µM | >200 µM | >200 µM | 4.3 ± 0.03 µM | 17 ± 1.58 µM |
| WRRRYRRWRRRRRWRRRPRR-NH2 [vCPP2319] | 1.22 ± 0.52 µM | 20.6 ± 2.1 µM | 5.02 ± 1.04 µM | >200 µM | >200 µM | >200 µM |  |  |
